The subject of data set [1] is leukocyte esterase (LE). Briefly: Kinetics of reaction with LE by ICECEA (Michaelis-Menten). It is filed as biochemical, human. To be noted: 6.0 nM LE; for Km / kcat: 1-40 μM compound, PBS pH 7.40, 21° C.; for kcat Km^−1: PBS pH 7.40, Table 2. As to the method:
FIG. 2. Michaelis-Menten plots for 6.0 nM LE and 1-40 μM compound: (a) I, (b) II, and (c) III, in PBS (pH 7.40). The solid lines represent the best fit to the experimental points based on the nonlinear regression.
The properties of compounds I-III as LE substrates were further investigated by determining their kinetics of reaction with LE (reaction 1). The initial rate of reaction 1 was measured by ICECEA at a constant LE concentration (cLE=6.0 nM; MW=29 kDa) and under the condition of cLE<<ccompound I-III(ccompound I-III=1-40 μM). The assays were conducted within a linear range of calibration plot for HQ at a GC electrode. One unit (U) of LE activity was defined as the amount of enzyme that catalyzed the hydrolysis of 1.0 μmole of a compound I-III per minute in a PBS solution at room temperature (21° C.). The LE activity (U L^−1) was calculated from the equation
[formula] where AS is an assay slope equal to the slope of rising I-t segment and CS is a calibration slope calculated from the I-t steps of ICECEA traces similar to those shown in FIG. 1. […] The analysis of such plots using the Michaelis-Menten kinetics yielded the Michaelis constants Km and turnover numbers kcat, which are shown in Table 1.

Data set [2] in a line: Solubility in water by UV-visible spectrophotometry. It is filed as physicochemical. Conditions: thermodynamic from solid, room temperature (21° C.), A270. As to the method:
Solubility. The solubility of compounds I-III was determined by UV-visible spectrophotometry. The compounds were dissolved in water at room temperature (21° C.) to make a series of solutions with increasing concentration. The solutions were stirred continuously and their spectra were recorded until steady-state equilibrium was reached. Below the solubility limit, the steady-state background-corrected absorbance of solution at 270 nm (A270) was directly proportional to the compound concentration as expected by the Beer-Lambert law. Above the solubility limit, the absorbance steadily levelled off. The low- and high-concentration regions of plots A270 vs. compound concentration were linearized and extrapolated to a crossing point, which was taken as the solubility of compound.

The subject of data set [3] is leukocyte esterase (LE) of white blood cell (WBC) suspensions. The data set can be described thus: Electrochemical LE assay (ICECEA) of human leukocyte suspensions. It is filed as biochemical. To be noted: for Average activity of single WBC: 100 μM substrate, pH 7.40 PBS, 0.40 V, from slopes of FIG. 3. Here is the method: FIG. 3. Dependence of LE activity on the white blood cell (WBC) count in leukocyte suspensions determined by using ICECEA and compound: (a) I, (b) II, and (c) III. Assay solution, 100 μM substrate I, II, or III in a pH 7.40 PBS solution. Concentration of HQ calibration spikes, 0.54 μM. Dilution factor, 100×. Potential, 0.40 V.
Finally, the compounds I-III were tested in the development of electrochemical LE assay using the ICECEA. The assay was optimized with respect to the detection potential, sample dilution factor, and solution composition (pH, concentration). Such assay was used to determine the esterolytic activity of a series of human leukocyte suspensions. […] Accordingly, the average esterolytic activity of single WBC calculated using the slopes of plots in FIG. 3 was the highest when determined using a compound III (Table 2).
Preparation of Leukocyte Suspensions. The original suspension of leukocytes was diluted 10 times with a PBS solution that contained 10 vol. % DMSO and left for 30 min on a shaker table at 60 rpm to lyse the leukocytes chemically. Such a suspension preserved a constant esterolytic activity for at least 5 days when stored in a refrigerator at 4° C. It was used as a solution C (vide infra) for the ICECEA.

The subject of data set [4] is leukocyte esterase (LE). The data set can be described thus: ICECEA test of recognition of compounds by LE as substrates (release of hydroquinone). It is filed as biochemical, human. Conditions: 60 μg mL^−1 compound, 86.7 μg L^−1 LE protein, pH 7.40 PBS, 0.40 V. Here is the method:
FIGS. 1A-B. (A) ICECEA I-t trace recorded at 0.40 V in a stirred pH 7.40 assay solution containing a tested compound. Each current step is due to the addition of hydroquinone calibrating aliquot to a solution. […] Otherwise, this segment was flat. (B) ICECEA current-time (I-t) traces recorded at a GC electrode in a stirred assay solution of compound (a) I, (b) II, (c) III. Trace # is for a precursor 1 to compounds I-III (Scheme 2). Arrows indicate the addition of 50 μL aliquots of hydroquinone (HQ) and leukocyte esterase (LE) to generate 0.54 μM HQ and 86.7 μg L^−1 LE protein in a solution. Assay solution, pH 7.40 PBS solution containing 60 μg mL^−1 of compound I-III or precursor 1. Traces were overlaid and shortened to show only the linear portion of ascending I-t segments. Potential, 0.40 V.
The initial electrochemical tests were performed to assess a degree of the recognition of compounds I-III by LE as its substrates. […]
The ICECEA was conducted by using phosphate buffer saline (PBS) solutions (pH 7.40, 154 mM NaCl) that contained either a tested compound, HQ, or LE. The current flowing through the GC electrode was measured while spiking 5.00 mL of a stirred assay solution of tested compound with triplicate aliquots of HQ solution and an aliquot of LE solution (FIG. 1). […]

≈ marks a conversion by molar mass, not a printed value. Counter-ions that a name gives are not always drawn.

One may read the Km as the concentration of substrate that gives half-maximal velocity. For orientation: kcat means the maximal rate divided by the concentration of active sites. By solubility is commonly meant the concentration that dissolves in the medium under given conditions. A low value points to little dissolved substance.

For `C[C@H](NS(=O)(=O)c1cccnc1)C(=O)Oc1ccc(OC(=O)[C@H](C)NS(=O)(=O)c2cccnc2)cc1` [Compound I, 4-(((pyridin-3-ylsulfonyl)-L-alanyl)oxy)phenyl (pyridin-3-ylsulfonyl)-L-alaninate], in the data set on leukocyte esterase (LE) [1], the Michaelis constant (Km) turned out to be 12 µM, the kcat amounted to 3.2 s⁻¹ and the “kcat Km^−1” value amounted to 270000 M⁻¹ s⁻¹. In addition, the solubility in data set [2] was 50 µg/mL (≈ 93.5 µM). Moreover, in data set [3], the “Average activity of single WBC” value was 0.8 nU.

For the compound `COC(=O)c1cncc(S(=O)(=O)N[C@@H](C)C(=O)Oc2ccc(OC(=O)[C@H](C)NS(=O)(=O)c3cncc(C(=O)OC)c3)cc2)c1` [Compound III, methyl 5-{[(2S)-1-(4-{[(2S)-2-[5-(methoxycarbonyl)pyridine-3-sulfonamido]propanoyl]oxy}phenoxy)-1-oxopropan-2-yl]sulfamoyl}pyridine-3-carboxylate], in the data set on leukocyte esterase (LE) [1], the Km worked out at 11 µM, the kcat is 6.4 s⁻¹ and the “kcat Km^−1” value is 580000 M⁻¹ s⁻¹. Also, in data set [2], the solubility amounted to 4000 µg/mL (≈ 6150 µM). In data set [3], the “Average activity of single WBC” value is on record as 4.5 nU. In addition, the “detection limit of LE assay” value in data set [3] (human leukocyte suspensions, ICECEA) was 20 WBC μL^−1.

Consider `C[C@H](N)C(=O)Oc1ccc(OC(=O)[C@H](C)N)cc1` [precursor 1, 1,4-phenylene (2S,2′S)-bis(2-aminopropanoate)-bis hydrochloride], for which the “recognition by LE as substrate (rising I-t segment after LE addition)” value in the data set with leukocyte esterase (LE) [4] is “no rising I-t segment”.

For `COc1ccc(S(=O)(=O)N[C@@H](C)C(=O)Oc2ccc(OC(=O)[C@H](C)NS(=O)(=O)c3ccc(OC)nc3)cc2)cn1` [Compound II, 4-((((6-methoxypyridin-3-yl)sulfonyl)-L-alanyl)oxy)phenyl ((6-methoxypyridin-3-yl)sulfonyl)-L-alaninate], in the data set with leukocyte esterase (LE) [1], the Km was 14 µM, the kcat turned out to be 5.3 s⁻¹ and the “kcat Km^−1” value was 380000 M⁻¹ s⁻¹. This compound also registered a solubility in data set [2] of 500 µg/mL (≈ 841 µM). In addition, the “Average activity of single WBC” value in data set [3] was found to be 1.5 nU.
